According to patent US8785443B2, “Methods of using prodrugs of methyl hydrogen fumarate and pharmaceutical compositions thereof” (XenoPort, Inc., priority 2008, dated 2014):

Legend:
[1] = Enzymatic stability of prodrug in CaCo2 S9 homogenate; assay type: in vitro ADME; conditions: CaCo2 S9 0.5 mg/mL, 0.1M Tris pH 7.4, 37° C.; for half-life at 40 µM: human, Caco-2 cell S9 homogenate, read-out: T1/2 Parent Prodrug Cleavage (min) CaCo2
Description: CaCo2 S9 homogenate was prepared using the following procedure. CaCo2 cells were grown in culture for 21 days prior to harvesting. Culture medium was removed from the culture vessel and the monolayer was rinsed twice with 10-15 mL chilled PBS buffer. PBS buffer (7-10 mL) was added to the flask and the cells scraped from the growth surface and transferred to a centrifuge tube. The cells were pelleted by centrifugation at 1500 rpm for 5 min at 4° C. The supernatant was removed and the cell pellet washed with ice cooled PBS and repelleted by centrifugation. The supernatant was removed and the pellet resuspended in cell lysis buffer (0.15M KCl and 10 mM sodium phosphate buffer, pH 7.4). Cells were lysed by sonication at 4° C. using a probe sonicator. The lysed cells were then transferred to vials and centrifuged at 1600 rpm for 10 min at 4° C. to remove intact cells, nuclei, and large cellular debris. The supernatant was removed and transferred to a tube for centrifugation at 8600 rpm for 20 min at 4° C. After centrifugation, the resulting supernatant representing the CaCo2 cell homogenate S9 fraction was carefully removed and aliquoted into vials for storage at −80° C. until the time of use. At the time of use, CaCo2 S9 lysate was diluted to 0.5 mg/mL in 0.1M Tris buffer, pH 7.4.
(§1) The enzymatic stability assays for prodrug in CaCo2 S9, rat liver S9, rat plasma, pig pancreatin, and rat colonic was were performed using the following procedure. Ninety (90) μL of lysate is aliquoted to designated tubes on a cluster plates. The lysate was preincubated for 10 min at 37° C. With the exception of the t(0) time point, 10 μL of a 400 μM solution of test compound in 0.1M Tris buffer, pH 7.4 was added to multiple wells representing different incubation times. The samples were incubated at 37° C. At each time point, the reaction was quenched by adding 300 μL of 100% ethanol. The samples were thoroughly mixed, the tubes transferred to a V-bottom plate, and stored at −20° C. For the t(0) time point, the lysate was quenched with 300 μL of ice cold 100% ethanol, thoroughly mixed, 10 μL of 400 μM test compound was added and mixed, and the sample tube transferred to a V-bottom plate and stored at −20° C. For analysis, 180 μL from each sample was transferred to a 96 well V-bottom plate and sealed. After all time points were collected, the plate was centrifuged for 10 min at 5600 rpm at 4° C. One-hundred fifty (150) μL from each well was then transferred to a 96 well round bottom plate. Samples were analyzed using LC/MS/MS to determine the concentrations of prodrug and parent drug.
(§2) LC-MS/MS analysis for MHF was performed using an API 4000 equipped with an Agilent 1100 HPLC and a Leap Technologies autosampler. A HPLC Phenomenex Onyx Monolithic C18 (CHO-7644) column at a temperature of 35° C., flow rate of 2.0 mL/min, injection volume of 30 μL, and a 3 min run time was used. Mobile phase AI was 0.1% formic acid in water and Mobile phase AII was 0.1% formic acid in acetonitrile. The gradient was 98% AI/2% AII at time 0; 98% AI/2% AII at time 0.1 mM; 5% AI/95% AII at time 1.4 mM; 5% AI/95% AII at time 2.2 min; 98% AI/2% AII at time 2.3 mM; and 98% AI/2% AII at time 3.0 min MHF content was determined using negative ion mode (Q1 128.94; Q2 71).

[2] = Enzymatic stability of prodrug in rat plasma; assay type: in vitro ADME; conditions: 37° C.; for half-life at 40 µM: read-out: T1/2 Parent Prodrug Cleavage (min) rPlasma
Description: Rat plasma (Pel-Freez® Biologicals, Rogers, Ark.; 36150) was used as obtained from the supplier.
as §1, §2

[3] = Enzymatic stability of prodrug in rat colonic wash; assay type: in vitro ADME; conditions: rat colonic wash undiluted, 37° C.; for half-life at 40 µM: pH 7.4, read-out: T1/2 Parent Prodrug Cleavage (min) rColonic Wash
Description: To prepare the rat colonic wash, the colon between the ceacum and rectum was resected from a euthanized rat. Five to 10 mL of PBS pH 7.4 buffer (depending on the weight of the rat) was flushed into the lumen of the large intestine and collected into a 250 mL glass beaker at 0° C. (ice bath). The colonic wash was transferred into 10 mL conical tubes using a 10 mL syringe fitted with a filter. Samples of 0.5 mL colonic wash are stored at −80° C. until the time of use. Colonic was used without dilution.
as §1, §2

[4] = Enzymatic stability of prodrug in porcine pancreatin; assay type: in vitro ADME; conditions: porcine pancreatin 10 mg/mL, 0.1M Tris pH 7.4, 37° C.; for half-life at 40 µM: pig, read-out: T1/2 Parent Prodrug Cleavage (min) pPancreatin
Description: Porcine pancreatin (Sigma Aldrich, St. Louis, Mo.; P1625-100G) was diled to 10 mg/mL in 0.1M Tris buffer, pH 7.4.
as §1, §2

[5] = Enzymatic stability of prodrug in rat liver S9; assay type: in vitro ADME; conditions: rat liver S9 0.5 mg/mL, pH 7.4, 1 mM NADPH, 37° C.; for half-life at 40 µM: read-out: T1/2 Parent Prodrug Cleavage (min) rLiver
Description: Rat liver S9 (XenoTech, Lenexa, Kans.; R1000.59, 20 mg/mL) was diluted to 0.5 mg mL in 0.1 M potassium phosphate buffer at pH 7.4 and 1 mM NADPH cofactor.
as §1, §2

pH 8.0 buffer stability = assay type: physicochemical; conditions: 150 mM NaH2PO4 buffer pH 8.0, 60 min, 37° C.
Description: For the pH 8.0 stability studies, 190 μL of 150 mM NaH2PO4 buffer pH 8.0 was added to each sample tube. Ten (10) μL of 20 mM test compound was added to each tube and mixed. The samples were incubated for 60 min at 37° C. Following incubation, the samples were transferred to room temperature and 800 μL of 50% ACN in water was added to each tube. Samples were analyzed using LC/MS/MS to determine the concentrations of prodrug and parent drug.
as §2

| Compound | half-life at 40 µM [1] [min] | half-life at 40 µM [2] [min] | half-life at 40 µM [3] [min] | half-life at 40 µM [4] [min] | half-life at 40 µM [5] [min] | pH 8.0: Percent DMF or prodrug remaining after 60 minutes (pH 8.0 buffer stability) [%] | melting point [°C] | T1/2 Parent Prodrug Cleavage (min) CaCo2 [1] [min] | T1/2 Parent Prodrug Cleavage (min) rPlasma [2] [min] | T1/2 Parent Prodrug Cleavage (min) rColonic Wash [3] [min] | T1/2 Parent Prodrug Cleavage (min) pPancreatin [4] [min] | T1/2 Parent Prodrug Cleavage (min) rLiver [5] [min] |
| --- | --- | --- | --- | --- | --- | --- | --- | --- | --- | --- | --- | --- |
| CCN(CC)C(=O)COC(=O)/C=C/C(=O)OC [Compound 1, (N,N-Diethylcarbamoyl)methyl methyl (2E)but-2-ene-1,4-dioate] | 8 | 1 | > 60 | 8 | 2 | 63 |  |  |  |  |  |  |
| COC(=O)/C=C/C(=O)OCC(=O)NCc1ccccc1 [Compound 2, Methyl [N-benzylcarbamoyl]methyl (2E)but-2-ene-1,4-dioate] | 4 | 9 | 25 | 1 | 9 | 17 |  |  |  |  |  |  |
| COC(=O)/C=C/C(=O)OCC(=O)N1CCOCC1 [Compound 3, Methyl 2-morpholin-4-yl-2-oxoethyl (2E)but-2-ene-1,4-dioate] | 56 | 1 | > 60 | 8 | 22 | 53 | 124 to 126 |  |  |  |  |  |
| CCCCNC(=O)COC(=O)/C=C/C(=O)OC [Compound 4, (N-Butylcarbamoyl)methyl methyl (2E)but-2-ene-1,4-dioate] | 5 | 1 | 33 | 2 | 2 | 40 |  |  |  |  |  |  |
| COCCNC(=O)COC(=O)/C=C/C(=O)OC [Compound 5, [N-(2-Methoxyethyl)carbamoyl]methyl methyl (2E)but-2-ene-1,4-dioate] | 30 | 2 | > 60 | 3 | 10 | 53 |  |  |  |  |  |  |
| COC(=O)/C=C/C(=O)OCC(=O)N(C)C [Compound 9] | 8 | 1 | > 60 | 4 | 6 | 47 |  |  |  |  |  |  |
| Methyl(N-(1,3,4-thiadiazol-2-yl)carbamoyl)methyl(2E)but-2ene-1,4-dioate [Compound 8] |  |  |  |  |  | 141 |  | 52 | 6 | 27 | 15 | 23 |

Continued, values first:

| half-life at 40 µM [1] [min] | half-life at 40 µM [2] [min] | half-life at 40 µM [3] [min] | half-life at 40 µM [4] [min] | half-life at 40 µM [5] [min] | pH 8.0: Percent DMF or prodrug remaining after 60 minutes (pH 8.0 buffer stability) [%] | melting point [°C] | T1/2 Parent Prodrug Cleavage (min) CaCo2 [1] [min] | T1/2 Parent Prodrug Cleavage (min) rPlasma [2] [min] | T1/2 Parent Prodrug Cleavage (min) rColonic Wash [3] [min] | T1/2 Parent Prodrug Cleavage (min) pPancreatin [4] [min] | T1/2 Parent Prodrug Cleavage (min) rLiver [5] [min] | Compound |
| --- | --- | --- | --- | --- | --- | --- | --- | --- | --- | --- | --- | --- |
| 3 | 1 | > 60 | 4 | 1 | 42 |  |  |  |  |  |  | COC(=O)/C=C/C(=O)OCC(=O)N(C)OC [Compound 10, (N-Methoxy-N-methylcarbamoyl)methyl methyl (2E) but-2-ene-1,4-dioate] |
|  |  |  |  |  |  | 79 to 82 |  |  |  |  |  | COCCN(CCOC)C(=O)COC(=O)/C=C/C(=O)OC [Compound 11] |
|  |  |  |  |  |  | 70 to 73 |  |  |  |  |  | COC(=O)/C=C/C(=O)OC(C)C(=O)N1CCOCC1 (stereo not shown) [Compound 28, Methyl 1-methyl-2-morpholin-4-yl-2-oxoethyl (2E)but-2-ene-1,4-dioate] |
|  |  |  |  |  |  | 79 to 82 |  |  |  |  |  | COC(=O)/C=C/C(=O)O[C@@H](C)C(=O)N1CCOCC1 [Compound 31, (1S)-1-Methyl-2-morpholin-4-yl-2-oxoethyl methyl (2E)but-2-ene-1,4-dioate] |
